From ChEMBL document CHEMBL4431301, “The Medicinal Chemistry of Dengue Virus” (J Med Chem, 2016)

Legend:
[1] = tested on: dengue virus type 4; assay: Antiviral activity against Dengue virus 4 infected in african green monkey Vero E6 cells assessed as inhibition of viral yield after 72 hrs by flow cytometry; format: functional, organism-based; conditions: Vero C1008, 72 h
[2] = tested on: dengue virus type 1; assay: Antiviral activity against Dengue virus 1 infected in african green monkey Vero E6 cells assessed as inhibition of viral yield after 72 hrs by flow cytometry; format: functional, organism-based; conditions: Vero C1008, 72 h
[3] = tested on: dengue virus type 2; assay: Antiviral activity against Dengue virus 2 infected in african green monkey Vero E6 cells assessed as inhibition of viral yield after 72 hrs by flow cytometry; format: functional, organism-based; conditions: Vero C1008, 72 h
[4] = Drug uptake in C57BL/6 mouse kidney infected with Ebola virus at 3 mg/kg, iv administered 2 hrs prior to viral infection measured on day 2 and 5 post viral infection by mass spectrometry; format: ADME, organism-based; conditions: read-out: Drug uptake
[5] = Drug uptake in C57BL/6 mouse spleen infected with Ebola virus at 3 mg/kg, iv administered 2 hrs prior to viral infection measured on day 2 and 5 post viral infection by mass spectrometry; format: ADME, organism-based; conditions: read-out: Drug uptake
[6] = tested on: dengue virus type 3; assay: Antiviral activity against Dengue virus 3 infected in african green monkey Vero E6 cells assessed as inhibition of viral yield after 72 hrs by flow cytometry; format: functional, organism-based; conditions: Vero C1008, 72 h
[7] = Inhibition of GST-fused Imp-alpha/beta1 (unknown origin) binding to Dengue virus NS5 after 2 hrs by alpha screen assay; set-up: species or system Homo sapiens
[8] = tested on: dengue virus type 2; assay: Antiviral activity against Dengue virus 2 by CFI assay; format: functional, organism-based
[9] = tested on: dengue virus type 1; assay: Antiviral activity against Dengue virus 1 by CFI assay; format: functional, organism-based
[10] = tested on: dengue virus type 2; assay: Antiviral activity against Dengue virus 2 NGC infected in african green monkey Vero cells assessed as reduction in viral titer preincubated for 2 hrs measured after 4 days by qRT-PCR; format: functional, organism-based
[11] = tested on: dengue virus type 3; assay: Antiviral activity against Dengue virus 3 by CFI assay; format: functional, organism-based
[12] = tested on: dengue virus type 4; assay: Antiviral activity against Dengue virus 4 by CFI assay; format: functional, organism-based
[13] = tested on: West Nile virus; assay: Antiviral activity against West Nile virus NY99 infected in african green monkey Vero cells assessed as reduction in viral titer preincubated for 2 hrs measured after 4 days by qRT-PCR; format: functional, organism-based
[14] = tested on: West Nile virus; assay: Antiviral activity against West Nile virus infected in african green monkey Vero cells assessed as reduction in viral titer after 42 hrs by plaque assay; format: functional
[15] = tested on: dengue virus type 2; assay: Antiviral activity against Dengue virus 2 NGC infected in african green monkey Vero cells assessed as reduction in viral titer after 42 hrs by plaque assay; format: functional
[16] = tested on: dengue virus type 2; assay: Antiviral activity against Dengue virus 2 Taiwanese PL046 infected in BHK21 cells after 48 hrs by plaque assay; format: functional, organism-based; conditions: Taiwanese PL046, BHK-21, 48 h
[17] = Inhibition of yeast alpha-glucosidase by double reciprocal plot method; set-up: species or system Saccharomyces cerevisiae
[18] = tested on: dengue virus type 2; assay: Antiviral activity against Dengue virus 2 PL046 infected in human WS1 cells by immunofluorescence analysis; format: functional, organism-based
[19] = tested on: dengue virus type 2; assay: Antiviral activity against Dengue virus 2 PL046 infected in human A549 cells by immunofluorescence analysis; format: functional, organism-based
[20] = tested on: dengue virus type 2; assay: Antiviral activity against Dengue virus 2 PL046 infected in […] Hepa1-6 cells by immunofluorescence analysis; format: functional, organism-based; conditions: PL046, Hepa1-6
[21] = tested on: dengue virus type 2; assay: Antiviral activity against Dengue virus 2 PL046 infected in mouse J774A.1 cells by immunofluorescence analysis; format: functional, organism-based; conditions: PL046, J774.A1
[22] = tested on: dengue virus type 2; assay: Antiviral activity against Dengue virus 2 S221 infected in ADE AG129 mouse model assessed as protection against viral infection at 20 to 100 mg/kg, po administered thrice daily for 7 days starting 1 hr prior to viral challenge measured for 10 days; format: functional
[23] = tested on: dengue virus type 2; assay: Antiviral activity against Dengue virus 2 NGC infected in african green monkey Vero cells assessed as reduction in viral titer preincubated for 1 hr followed by viral infection measured after 5 days by immunoplaque assay; format: functional, organism-based
[24] = tested on: dengue virus type 1; assay: Antiviral activity against Dengue virus 1 West Pacific infected in human A549 cells assessed as reduction in viral titer after 48 hrs by plaque assay; format: functional, organism-based; conditions: A549, 48 h
[25] = tested on: dengue virus type 4; assay: Antiviral activity against Dengue virus 4 22713 infected in BHK21 cells assessed as reduction in viral titer after 48 hrs by plaque assay; format: functional, organism-based; conditions: Dengue virus, 22713, BHK-21, 48 h
[26] = tested on: dengue virus type 2; assay: Antiviral activity against Dengue virus 2 NGC infected in human A549 cells assessed as reduction in viral titer after 48 hrs by plaque assay; format: functional, organism-based; conditions: A549, 48 h
[27] = tested on: dengue virus type 3; assay: Antiviral activity against Dengue virus 3 34640 infected in human A549 cells assessed as reduction in viral titer after 48 hrs by plaque assay; format: functional, organism-based; conditions: Dengue virus, 34640, A549, 48 h
[28] = tested on: dengue virus type 2; assay: Antiviral activity against Dengue virus 2 NGC infected in HeLa cells assessed as reduction in viral RNA replication after 48 hrs by luciferase assay; format: functional, organism-based
[29] = Selectivity index, ratio of CC50 for african green monkey Vero cells to EC50 for Dengue virus 2 NGC; format: toxicity; conditions: read-out: Ratio CC50/EC50
[30] = tested on: West Nile virus; assay: Antiviral activity against West Nile virus Kunjin preincubated for 30 mins with virus followed by cell infection for 2 hrs measured after 3 days by crystal violet staining based plaque reduction assay; format: functional, organism-based
[31] = tested on: dengue virus type 2; assay: Antiviral activity against Dengue virus 2 NGC preincubated for 30 mins with virus followed by cell infection for 2 hrs measured after 5 days by immunostaining based plaque reduction assay; format: functional, organism-based
[32] = tested on: Yellow fever virus; assay: Antiviral activity against Yellow fever virus 17D Vaccine preincubated for 30 mins with virus followed by cell infection for 2 hrs measured after 6 days by crystal violet staining based plaque reduction assay; format: functional, organism-based
[33] = tested on: dengue virus type 2; assay: Antiviral activity against Dengue virus 2 infected in BHK-pD2hRucPac cells assessed as reduction in virus replication after 72 hrs by renilla luciferase reporter gene assay; format: functional, organism-based
[34] = Inhibition of Dengue virus 2 16681 NS5 guanylation expressed in Escherichia coliBL21(DE3) cells after 4 hrs by coomassie blue staining based SDS-PAGE method; set-up: species or system dengue virus type 2

## Cc1cc(NCCCN(C)C)c2ccc3c(ccc4c(NCCCN(C)C)cc(C)nc43)c2n1
[1]
  EC50: 400 to 900 nM
[2]
  EC50: 400 to 900 nM
[3]
  EC50: 400 to 900 nM
[4]
  concentration at 2 h: 43100 ng/g
[5]
  concentration at 2 h: 19500 ng/g
[6]
  EC50: 400 to 900 nM

## IVERMECTIN
[7]
  IC50: 17000 nM
[8]
  EC50: 1200 to 1600 nM
[9]
  EC50: 1200 to 1600 nM
[10]
  EC50: 700 nM
[11]
  EC50: 1200 to 1600 nM
[12]
  EC50: 1200 to 1600 nM
[13]
  EC50: 4000 nM

## COC(=O)c1c(-c2c(Cl)cccc2Cl)noc1-c1cnn(-c2cccc(Cl)c2)c1C(F)(F)F
[14]
  EC90: 0.31 nM
[15]
  EC90: 5.2 nM

## CCCCCCCCCCN1[C@H](CO)[C@@H](O)[C@H](O)[C@H]1CNC(=O)C1Cc2ccccc21 (some centres undefined)
[16]
  EC50: 4700 nM

## O=C(NC[C@H]1N[C@H](CO)[C@@H](O)[C@@H]1O)C1Cc2ccccc21 (some centres undefined)
[17]
  Ki: 53 nM

## CCN(CCO)CCCC(C)Nc1ccnc2cc(Cl)ccc12 (centres undefined) [HYDROXYCHLOROQUINE]
[18]
  IC50: 9700 to 12900 nM
[19]
  IC50: 9700 to 12900 nM
[20]
  IC50: 9700 to 12900 nM
[21]
  IC50: 9700 to 12900 nM

## OC[C@@H]1[C@@H](O)[C@H](O)[C@@H](O)CN1CCCCCCCCC1CCCO1 (some centres undefined)
[22]
  Activity: 100%
[23]
  EC50: 21700 nM

## O=C1C[C@]2(C(=O)Nc3ccc(Cl)cc32)c2cnn(Cc3ccc(Cl)cc3)c2N1
[24]
  EC50: > 20000 nM
[25]
  EC50: > 20000 nM
[26]
  EC50: 10 to 80 nM
[27]
  EC50: 10 to 80 nM
[28]
  EC50: 1900 nM

## C/C(=N\Nc1ccccc1)c1sc(-c2cc(Cl)nc(Oc3ccc(Cl)cc3)c2)nc1C
[29]
  selectivity ratio: > 83
[30]
  IC50: 3800 nM
[31]
  IC50: 1200 nM
[32]
  IC50: 1600 nM

## CC(C)(C)c1ccc(/C=C2\SC(=S)N(CCC(=O)O)C2=O)cc1
[33]
  EC50: 30800 nM
[34]
  IC50: 7300 nM
